Laboratory results as given in paper PMC10488391, “Membrane-Targeting Perylenylethynylphenols Inactivate Medically Important Coronaviruses via the Singlet Oxygen Photogeneration Mechanism” (Molecules, 2023).
Where two headings read alike, the source gives them in different places.

Columns and labels:
[1] = Cytotoxicity to CRFK cells under normal lighting; type: cell-based; conditions: cat (Felis catus), CRFK cells (kidney cortex), confluent monolayer
Method: Furthermore, we investigated the mechanism of antiviral activity of perylenylethynylphenols using FIPV, another member of the Coronaviridae family, which is an important veterinary pathogen.
To determine the light-induced cytotoxicity of the compounds, CRFK cells were cultured in 96-well plates for 24 h to form a confluent monolayer and then treated with the tested compounds at concentrations ranging from 0 to 10 µM in daylight. Subsequently, cells treated with the compounds were irradiated with LEDs (465–480 nm, 30 mW/cm^2) for 10 min at RT (Figure 7A, top panel). As a negative control, CRFK cells were treated with the compounds in daylight and then incubated in the dark at RT for 10 min (Figure 7A, bottom panel). Subsequently, both irradiated and non-irradiated cell monolayers were incubated for 48 h in the dark at 37 °C. After incubation, the potential photocytotoxicity of the compounds was determined using Cell Counting Kit-8 (Dojindo Molecular Technologies, Munich, Germany) according to the manufacturer’s instructions.

PS cells = experiment: Confocal microscopy of penetration into cellular membranes; type: cell-based, porcine; conditions: 10 µM
Method: Confocal microscopy was used to study the penetration of compound 3a into cellular membranes. PS cells were treated with 3a (10 µM) in a µ-Slide 8 Well (IbidiGmbH, Gräfelfing, Germany) in the dark for 60 min at 37 °C. The samples were analyzed for fluorescent signal distribution and intensity using a Leica SP8 confocal microscope (Leica, Wetzlar, Germany) as described previously.

SARS-CoV-2 [2] = experiment: Virucidal (virus-inactivating) activity, plaque assay; type: cell-based; conditions: 10 µM; 120 min pre-incubation in the dark; starting titers 10^4, 10^6 and 10^7 PFU/mL
[3] = Cytotoxicity assay (Cell Counting Kit-8); type: cell-based; conditions: African green monkey, Vero cells, confluent monolayer; 48 h at 37 °C in the dark; compounds 0–10 µM
Method: Vero cells were cultured for 24 h in 96-well plates to form a confluent monolayer, and then were treated with the tested compounds at concentrations of 0–10 µM. After 48 h of cultivation in the dark at 37 °C under 5% CO2, the cell culture medium was aspirated. The potential cytotoxicity of the tested derivatives was determined based on cell viability using Cell Counting Kit-8 (Dojindo Molecular Technologies, Munich, Germany) according to the manufacturer’s instructions (Figure 5A).

[4] = Singlet oxygen generation quantum yield (SOSG fluorescence); type: physicochemical; conditions: in methanol, illumination 430–450 nm, 5.5 mW/cm^2, reference PS C1T11
Method: The ROS generation rate was estimated using the spectrofluorimetric method, based on the fluorescense changes of Singlet Oxigen Sensor Green (SOSG®, Lumiprobe, Cockeysville, MD, USA) in methanol solution. Oxidation of SOSG by singlet oxygen results in peroxide formation enhancing SOSG fluorescence.
Spectrophotometric measurements were performed in a Qpod 2e thermostated cuvette holder (Quantum Northwest, Liberty Lake, WA, USA) at 25 °C and with magnetic stirring (500 rpm). Absorption spectra were recorded using a MayaPro spectrophotometer (Ocean Optics, Orlando, FL, USA) and a stabilized white light source with a SLS201L tungsten lamp (Thorlabs, Newton, NJ, USA). The fluorescence of SOSG was measured with a Flame CCD spectrometer (Ocean Optics, Orlando, FL, USA) in StripChart mode (530 nm), excitation of the SOSG fluorescence was carried out with a PLS-510 LED laser (InTop, St. Petersburg, Russia) in CW mode at the wavelength of 510 nm.
To study photosensitized ^1O2 generation, we used a white MCWHLP1 LED (Thorlabs, USA) with filters to limit the radiation to the 430–450 nm range (5.5 mW/cm^2). Illumination was uniform over the entire volume of the cuvette, to prevent artifacts associated with the diffusion of non-reacted components from entering into the illuminated volume of the cuvette. Illumination was performed in pulsed mode, with 1 s of illumination followed by 5 s of dark adaptation, during which the fluorescence spectrum of the photosensitizer-SOSG solution was recorded.
Singlet oxygen generation quantum yield for compounds 3a–3f in methanol was calculated according to Equation (1):(1) φΔ=φΔ0∗r/r^0(1−10^−A^0)/(1−10^−A), where r is the rate of SOSG fluorescence increase in solution of the photosensitizer (PS), A is the PS absorbance in the region of illumination, and index 0 represents reference PS (we used perylene compound C1T11 [65] with φΔ0=0.59 in methanol).

[5] = Interaction with liposomes (steady-state fluorescence); type: physicochemical; conditions: 10 µM in PBS; 520 nm; after the complete incubation period (3500 s)
Method: The affinity of 3a to lipid membranes was further confirmed using a liposomal (protein-free) membrane model system (Figure 6D,E). […] The kinetics of liposome penetration of 3a were measured as the steady-state fluorescence response at 520 nm, which reached maximal intensity of about 4 × 10^5 CPE after the complete incubation period (3500 s) (Figure 6E).
The samples’ steady-state fluorescence characteristics were measured in L-format using a Chronos DFD Fluorescence spectrometer (ISS, Baltimore, MD, USA) equipped with a 300 W Cermax xenon arc lamp (ISS, Baltimore, MD, USA), a concave holographic grating monochromator, and a PMT detector. The required amount of each sample was diluted in DMSO and measured in a 1-cm quartz cuvette, at a constant temperature of 25 °C. The resulting data were evaluated using Vinci software version 2 (ISS, Baltimore, MD, USA) and correlated to the utilized optical configuration.
The kinetics of the incorporation of compounds into liposome membrane models were determined using steady-state fluorescence spectroscopy at a constant excitation and emission wavelength, according to the corresponding sample excitation and emission maxima. We added 50 μL of LNP suspension to 10 µM of the analyte in PBS and monitored the increase in fluorescence intensity over the time range […].

FIPV [6] = experiment: Photodynamic inactivation of FIPV virions; type: cell-based, feline infectious peritonitis virus
Method: Considering that perylenylethynylphenols are potent ^1O2 photogenerators, we investigated their coronavirus inactivation activity after the irradiation of compound-pretreated FIPV with blue light (465–480 nm, with an approximate power density of 30 mW/cm^2; note: the 465–480 nm wavelength is close to the excitation maxima of perylenylethynylphenols). In this experiment, (i) compound 3a and the virus were mixed in daylight and irradiated with blue light for 10 min (Figure 7D, top panel), or (ii) the compound and virus were mixed in daylight and incubated in the dark for 10 min (Figure 7D, medium panel). Then, both samples (irradiated and non-irradiated) were incubated for 1 h at 37 °C in the dark, and the viability of FIPV was determined by a plaque assay. […] We speculate that the observed enhancement of antiviral (virus inactivation) activity of 3a is due to increased ^1O2 photogeneration during sample irradiation.
To completely eliminate the influence of daylight on the anti-FIPV activity of perylenylethynylphenols, we performed a parallel experiment in a dark room. In this experiment, all manipulations, including sample preparation and plaque assays, were performed under red light (624 ± 20 nm) (Figure 7D, bottom panel).
Virus in DMEM (titer of 10^6 PFU/mL) was mixed with 3a (0–10 µM) in a microtiter plate in daylight and irradiated for 10 min at RT with LEDs (465–480 nm) at an approximate power density of 30 mW/cm^2 (Figure 7D, top panel). As a negative control, the virus was mixed with 3a (0–10 µM) in daylight and incubated with the compound for 10 min in the dark at RT (Figure 7D, middle panel). Subsequently, both irradiated and non-irradiated virus samples were incubated in the dark at 37 °C for an additional 60 min. Viral titers were determined by plaque assays (also in daylight). […] The virus sample was mixed with 3a (0–10 µM), incubated at 37 °C for 60 min, and the viability of the virus was assessed by plaque assays (Figure 7D, bottom panel). […]

FIPV [7] = experiment: Anti-FIPV activity in CRFK cells (plaque assay); type: cell-based, feline infectious peritonitis virus; conditions: Alphacoronavirus 1, normal lighting (preparation in daylight, cultivation in the dark)
SARS-CoV-2 [8] = experiment: Virus titer reduction assay; type: cell-based; conditions: for SI: SARS-CoV-2 EC50 and Vero cells CC50; for EC50: Severe acute respiratory syndrome coronavirus 2
[9] = Light-induced cytotoxicity (photocytotoxicity); type: cell-based; conditions: cat (Felis catus), CRFK cells, confluent monolayer; blue light 465–480 nm, 30 mW/cm^2, 10 min; then 48 h incubation; read-out: Cell viability of irradiated CRFK cells
[10] = parameters: method as in PMID 37339718; conditions: in methanol; cited from earlier work
[11] = SARS-CoV-2 in Vero cells, normalized log-transformed response, read-out: App. EC50, calculated from log-transformed viral titers (converted)
[12] = Vero cells, MOI 0.1, 48 h p.i., normal lighting, 50% reduction in viral titer, read-out: SARS-CoV-2 EC50

SMILES | CC50 at 48 h [1] [µM] | Cytotoxicity or morphological abnormalities in PS cells (PS cells) | Decrease in SARS-CoV-2 viral titer compared with control (SARS-CoV-2 [2]) | CC50 at 48 h [3] [µM] | ϕΔ(1O2), singlet oxygen generation quantum yield [4] | Maximal steady-state fluorescence intensity on liposome penetration [5] | anti-FIPV activity under red light (FIPV [6]; dark room, all manipulations under red light (624 ± 20 nm), up to 10 µM) | anti-FIPV (virus inactivation) activity after blue-light irradiation (FIPV [6]; mixed in daylight, blue light 465–480 nm, 30 mW/cm^2, 10 min, versus non-irradiated sample) | FIPV-inactivation activity in the non-irradiated sample (FIPV [6]; mixed in daylight, incubated in the dark 10 min, then 1 h at 37 °C) | EC50 (FIPV [7]) [µM] | SI (SARS-CoV-2 [8]) | EC50 (SARS-CoV-2 [8]; [11]) [µM] | EC50 (SARS-CoV-2 [8]; [12]) [µM] | viability at 48 h [9] [%] | φΔ0, singlet oxygen generation quantum yield of the reference PS [10]
Oc1ccc(C#Cc2ccc3c4cccc5cccc(c6cccc2c63)c54)cc1 [Compound 3a, 4-(Perylen-3-ylethynyl)phenol] | > 10 | no signs of cytotoxicity or morphological abnormalities | more than two orders of magnitude | > 10 | 0.422 | about 4 × 10^5 CPE | completely disappeared | significant increase in anti-FIPV activity | some FIPV-inactivation activity | 0.196 | >83 | 1.79 | 0.12 |  | 
Oc1cccc(C#Cc2ccc3c4cccc5cccc(c6cccc2c63)c54)c1 [Compound 3b, 3-(Perylen-3-ylethynyl)phenol] |  |  |  | > 10 | 0.451 |  |  |  |  |  | >196 | 0.506 | 0.0511 | > 100 | 
Oc1ccc(C#Cc2ccc3c4cccc5cccc(c6cccc2c63)c54)cc1Br [Compound 3c, 4-(Perylen-3-ylethynyl)-2-bromophenol] |  |  |  | > 10 | 0.282 |  |  |  |  |  | >44 | 1.1 | 0.227 |  | 
Oc1ccc(C#Cc2cc3cccc4c5cccc6cccc(c(c2)c34)c65)cc1 [Compound 3d, 4-(Perylen-2-ylethynyl)phenol] |  |  |  | > 10 | 0.297 |  |  |  |  |  | >16 | 2.22 | 0.614 |  | 
Oc1cccc(C#Cc2cc3cccc4c5cccc6cccc(c(c2)c34)c65)c1 [Compound 3e, 3-(Perylen-2-ylethynyl)phenol] |  |  |  | > 10 | 0.460 |  |  |  |  |  | >29 | 1.57 | 0.347 | > 100 | 
Oc1ccc(C#Cc2cc3cccc4c5cccc6cccc(c(c2)c34)c65)cc1Br [Compound 3f, 4-(Perylen-2-ylethynyl)-2-bromophenol] |  |  |  | > 10 | 0.332 |  |  |  |  |  | >19 | 2.68 | 0.529 |  | 
O=C(O)c1ccc(-c2ccc3c4cccc5cccc(c6cccc2c63)c54)s1 [Compound C1T11] |  |  |  |  |  |  |  |  |  |  |  |  |  |  | 0.59
